Experiments:
[1] = molecular target: Farnesyl pyrophosphate synthase (Trypanosoma cruzi); experiment: Inhibition of Trypanosoma cruzi farnesyl pyrophosphate synthase
[2] = Binding affinity towards Trypanosoma cruzi farnesyl pyrophosphate synthase (TcFPPS)
[3] = molecular target: Farnesyl pyrophosphate synthase (Trypanosoma cruzi); experiment: as above
[4] = as above; remark: listed apart in the source

| Structure (SMILES) | IC50 [1] | Ki [2] | Ki [3] | Ki [4] |
| --- | --- | --- | --- | --- |
| CCCC(P(=O)(O)O)P(=O)(O)O [(1-Phosphono-butyl)-phosphonic acid] | 150 µM | 17 µM | – | – |
| CCCCCCC(P(=O)(O)O)P(=O)(O)O [(1-Phosphono-heptyl)-phosphonic acid] | 4.54 µM | – | 0.54 µM | – |
| CCCCCC(P(=O)(O)O)P(=O)(O)O [(1-Phosphono-hexyl)-phosphonic acid] | 5.67 µM | – | – | 0.47 µM |
| CCCCCCCCC(P(=O)(O)O)P(=O)(O)O [(1-Phosphono-nonyl)-phosphonic acid] | 4.25 µM | – | 0.31 µM | – |
| CCCCCCCC(P(=O)(O)O)P(=O)(O)O [(1-Phosphono-octyl)-phosphonic acid] | 19.7 µM | – | 1.88 µM | – |
| CCCCC(P(=O)(O)O)P(=O)(O)O [(1-Phosphono-pentyl)-phosphonic acid] | 5.71 µM | 0.79 µM | – | – |
| CCC(P(=O)(O)O)P(=O)(O)O [(1-Phosphono-propyl)-phosphonic acid] | > 100 µM | – | – | – |
